US20140194392A1 (priority 2013, published 2014)

Tests used:
[1] = test system: Influenza A/TW/70066/09 (H1N1); assay: microbe, parasite or virus in culture; assay type: cell-based; conditions: H1N1, read-out: EC50 on the inhibition of replication (viral plaque reduction assay)
[2] = test system: Influenza A/TW/70058/09 (H1N1); assay: microbe, parasite or virus in culture; assay type: cell-based; conditions: H1N1, read-out: EC50 on the inhibition of replication (viral plaque reduction assay)

Structure (SMILES): Nc1c(S(=O)(=O)O)cc(Nc2cccc(S(=O)(=O)CCOS(=O)(=O)O)c2)c2c1C(=O)c1ccccc1C2=O [RB19, remazol brilliant blue R]
- EC50 [1]: 11.9 µM
- EC50 [2]: 9.8 µM
